A short description of series [1]: Oral bioavailability in mouse at 300 mg/kg, po measured after 30 mins. The settings on record: in vivo, read-out: Drug uptake. It counts as ADME, organism-based.
Series [2] concerns Mycobacterium tuberculosis. The series is described as follows: Antimicrobial activity against Mycobacterium tuberculosis H37Rv at assessed as growth inhibition at […] following 24 days oxygen depletion by Wayne method relative to control. It counts as functional. Further details: scale not given: the % may be the effect or the level left.
Series [3] relates to Mycobacterium tuberculosis. The series is described as follows: Antimicrobial activity against Mycobacterium tuberculosis Erdman injected into gamma interferon gene knockout C57BL/6 mouse assessed as bacterial load in lung of mouse at 300 mg/kg measured 9 days post drug treatment. It counts as functional.
Series [4] relates to Mycobacterium tuberculosis. Kind of series: Antimicrobial activity against Mycobacterium tuberculosis H37Rv by alamar blue assay. It counts as functional. A general note: Alamar Blue is a resazurin reagent that responds to reducing activity.
Series [5] has as its system Mycobacterium tuberculosis. The series is described as follows: Antimicrobial activity against Mycobacterium tuberculosis Erdman injected into gamma interferon gene knockout C57BL/6 mouse assessed as bacterial load in spleen of mouse at 300 mg/kg measured 9 days post drug treatment. It counts as functional.
Series [6] is described as follows: Oral bioavailability in mouse at 300 mg/kg, po measured after 2 hrs. It counts as ADME, organism-based. The settings on record: in vivo, read-out: Drug uptake.
The nature of series [7]: Oral bioavailability in mouse at 25 mg/kg, po measured after 30 mins. It counts as ADME, organism-based. The settings on record: in vivo, read-out: Drug uptake.
Series [8] has as its system Mycobacterium tuberculosis. The series is described as follows: Antimicrobial activity against Mycobacterium tuberculosis Erdman injected into gamma interferon gene knockout C57BL/6 mouse assessed as bacterial load in lung of mouse at 25 mg/kg measured 9 days post drug treatment. It counts as functional.
Series [9] is described as follows: Oral bioavailability in mouse at 25 mg/kg, po measured after 2 hrs. It counts as ADME, organism-based. The settings on record: in vivo, read-out: Drug uptake.
The subject of series [10] is Mycobacterium tuberculosis. The series is described as follows: Antimicrobial activity against Mycobacterium tuberculosis Erdman injected into gamma interferon gene knockout C57BL/6 mouse assessed as bacterial load in spleen of mouse at 25 mg/kg measured 9 days post drug treatment. It counts as functional.
Series [11] has as its system Mycobacterium tuberculosis. The series is described as follows: Antimicrobial activity against Mycobacterium tuberculosis Erdman injected into gamma interferon gene knockout C57BL/6 mouse assessed as bacterial load in spleen of mouse at 100 mg/kg measured 9 days post drug treatment. It counts as functional.
The test system of series [12] is Mycobacterium tuberculosis. Kind of series: Antimicrobial activity against Mycobacterium tuberculosis H37Rv by macrodilution method. It counts as functional.
The subject of another series is Escherichia coli. Kind of series: Antimicrobial activity against Escherichia coli ATCC 25922 by broth macrodilution method. It counts as functional.
The test system of a further series is Staphylococcus aureus. Kind of series: Antimicrobial activity against Staphylococcus aureus ATCC 29213 by broth macrodilution method. It counts as functional.
Another series deals with Pseudomonas aeruginosa. The series is described as follows: Antimicrobial activity against Pseudomonas aeruginosa ATCC 27853 by broth macrodilution method. It counts as functional.
For series [13], the system named is Mycobacterium tuberculosis. Kind of series: Antimicrobial activity against Mycobacterium tuberculosis Erdman injected into gamma interferon gene knockout C57BL/6 mouse assessed as bacterial load in lung of mouse at 100 mg/kg measured 9 days post drug treatment. It counts as functional.
The mark [14] stands for this setting: Mycobacterium tuberculosis, H37Rv, read-out: MIC.

Values after ≈ are worked out from the molar mass of the structure shown.

Here are results for 9 compounds from ChEMBL document CHEMBL1255311, “Evaluation of a 2-pyridone, KRQ-10018, against Mycobacterium tuberculosis in vitro and in vivo” (Antimicrob Agents Chemother, 2008).

By MIC is commonly meant the lowest concentration found to suppress growth.

In the case of `COc1c(N2C[C@@H]3CCCN[C@@H]3C2)c(F)cc2c(=O)c(C(=O)O)cn(C3CC3)c12` [MOXIFLOXACIN], in series [1], the concentration at 0.5 h is 19600 ng/mL. Further, the Activity in series [2] came to 2.5%. Moreover, the log10cfu in [3] came out at 2.37; in [5] it was 2.43. Moreover, the MIC is 0.1 µg/mL (≈ 0.249 µM) in series [4] and 0.12 µg/mL (≈ 0.299 µM) in series [4] (setting [14]). Besides, the concentration at 2 h in [6] came to 9600 ng/mL.
As to `CO[C@H]1/C=C/O[C@@]2(C)Oc3c(C)c(O)c4c(O)c(c(/C=N/N5CCN(C)CC5)c(O)c4c3C2=O)NC(=O)/C(C)=C\C=C\[C@H](C)[C@H](O)[C@@H](C)[C@@H](O)[C@@H](C)[C@H](OC(C)=O)[C@@H]1C` [RIFAMPIN], in series [2], the Activity is given as 5.6%.
Consider `CN[C@@H]1[C@H](O[C@H]2[C@H](O[C@H]3[C@H](O)[C@@H](O)[C@H](N=C(N)N)[C@@H](O)[C@@H]3N=C(N)N)O[C@@H](C)[C@]2(O)C=O)O[C@@H](CO)[C@H](O)[C@H]1O` [STREPTOMYCIN], for which the Activity in series [2] is given as 4.2%.
The same measure, in the same setting: the value for `COc1c(N2CCNC(C)C2)c(F)cc2c(=O)c(C(=O)O)cn(C3CC3)c12` (configuration not stated) [GATIFLOXACIN] was 41%.
As for `CO[C@H]1/C=C/O[C@@]2(C)Oc3c(C)c(O)c4c(O)c(c(/C=N/N5CCN(C6CCCC6)CC5)c(O)c4c3C2=O)NC(=O)/C(C)=C\C=C\[C@H](C)[C@H](O)[C@@H](C)[C@@H](O)[C@@H](C)[C@H](OC(C)=O)[C@@H]1C` [RIFAPENTINE], the Activity in series [2] is 2.5%.
For `Cc1ncc([N+](=O)[O-])n1CCO` [METRONIDAZOLE], the Activity in series [2] was determined as 36%.
Turning to `O=C(O)c1cn(C2CC2)c2cc(N3CCNCC3)c(F)cc2c1=O` [CIPROFLOXACIN], the Activity in [2] was found to be 83%.
As to `NNC(=O)c1ccncc1` [ISONIAZID], in series [7], the concentration at 0.5 h is more than 13100 ng/mL. The Activity in [2] was determined as 70%. The log10cfu in [8] is on record as 5.8; in [10] it was 3.14. For the same compound, the MIC was determined as 0.041 µg/mL (≈ 0.299 µM) in [4] and 0.048 µg/mL (≈ 0.35 µM) in series [4] (setting [14]). Also, in series [9], the concentration at 2 h is 1640 ng/mL.
Regarding `Cc1c(N2CC3=CCCN[C@H]3C2)c(F)cn2c(=O)c(C(=O)O)cc(C3CC3)c12`, the log10cfu in [11] is recorded as 5.92; in [3], 6.13; in series [5], 4.91; in [13] it was 7.25. In addition, the MIC in series [12] is 0.041 µg/mL (≈ 0.107 µM); in the series with Escherichia coli, less than 0.015 µg/mL; against Staphylococcus aureus, less than 0.015 µg/mL; in series [4] (setting [14]) it was less than 0.025 µg/mL; in the series with Pseudomonas aeruginosa it was less than 0.015 µg/mL. Also, the concentration at 0.5 h in [1] is more than 13100 ng/mL. Moreover, in series [2], the Activity was 1.7%. Also, the concentration at 2 h in series [6] was found to be 1640 ng/mL.
